Results published in paper PMC10151467, “Elucidating the origins of phycocyanobilin biosynthesis and phycobiliproteins” (Proceedings of the National Academy of Sciences of the …, 2023).

Assays:
CAP_1521 (BBAG-2) = molecular target: T1, CAP_1521 (BBAG-2) (Chondromyces apiculatus, UniProt A0A017TC46); test: absorption of purified holoprotein, acid denaturation, CD; format: binding; conditions: covalent adduct; coexpressed in E. coli with HO POZ53545 and CAP_1520; 25 °C
T1 construct: coexpressed in E. coli with bilin biosynthesis plasmid
T1 sequence (A0A017TC46 1-259): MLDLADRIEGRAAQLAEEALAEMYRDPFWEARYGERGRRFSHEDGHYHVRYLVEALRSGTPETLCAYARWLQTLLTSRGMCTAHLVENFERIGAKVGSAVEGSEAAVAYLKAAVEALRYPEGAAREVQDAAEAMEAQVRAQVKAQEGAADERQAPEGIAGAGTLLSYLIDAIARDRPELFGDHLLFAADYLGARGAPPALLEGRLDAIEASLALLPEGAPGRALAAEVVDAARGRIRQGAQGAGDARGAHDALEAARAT

POZ53557 (pre-1 FDBR) = molecular target: T2, POZ53557 (pre-1 FDBR) (Methylovulum psychrotolerans, UniProt A0A2S5CS30); test: coexpression in E. coli with HO and Cph1 reporter; bilin identified on reporter; format: cell-based; conditions: E. coli coexpression with HO POZ53545; inefficient reduction to PΦB
T2 construct: gene pcyA; replaces alt-PcyA in plasmid Spam-545/alt557, coexpressed in E. coli with HO and Cph1 reporter; not purified
T2 sequence (A0A2S5CS30 1-228): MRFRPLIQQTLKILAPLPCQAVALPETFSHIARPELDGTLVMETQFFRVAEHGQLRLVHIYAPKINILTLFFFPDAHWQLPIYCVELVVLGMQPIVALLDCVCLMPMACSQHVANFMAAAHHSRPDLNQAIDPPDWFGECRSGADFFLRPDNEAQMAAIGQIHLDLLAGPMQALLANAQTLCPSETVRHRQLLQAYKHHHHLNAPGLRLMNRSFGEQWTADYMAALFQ

POZ53552 (BBAG-1) [1] = molecular target: T3, POZ53552 (BBAG-1) (Methylovulum psychrotolerans, UniProt A0A2S5CS40); test: absorption of purified holoprotein; format: binding; conditions: covalent (CXRD motif); coexpressed with HO POZ53545 alone (Spam-545xc); poor chromophorylation
T3 construct: gene AADEFJLK_00580; synthetic gene in pET28 (pET28-RcaE backbone); coexpressed in E. coli with bilin biosynthesis plasmid; CXRD motif
T3 sequence (A0A2S5CS40 1-198): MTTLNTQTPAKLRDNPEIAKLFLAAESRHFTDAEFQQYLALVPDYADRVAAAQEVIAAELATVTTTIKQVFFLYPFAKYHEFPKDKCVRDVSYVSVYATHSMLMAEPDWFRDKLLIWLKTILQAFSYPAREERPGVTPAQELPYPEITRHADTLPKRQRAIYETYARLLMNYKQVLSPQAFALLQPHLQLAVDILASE

Cph1 (N514 truncation) = molecular target: T4, Cph1 (N514 truncation) (Synechocystis sp. PCC 6803, UniProt Q55168); test: absorption, photoconversion, acid denaturation; format: binding; conditions: covalent adduct
T4 construct: N514 truncation construct sufficient for photoconversion, His-tagged, E. coli
T4 sequence (Q55168 1-514): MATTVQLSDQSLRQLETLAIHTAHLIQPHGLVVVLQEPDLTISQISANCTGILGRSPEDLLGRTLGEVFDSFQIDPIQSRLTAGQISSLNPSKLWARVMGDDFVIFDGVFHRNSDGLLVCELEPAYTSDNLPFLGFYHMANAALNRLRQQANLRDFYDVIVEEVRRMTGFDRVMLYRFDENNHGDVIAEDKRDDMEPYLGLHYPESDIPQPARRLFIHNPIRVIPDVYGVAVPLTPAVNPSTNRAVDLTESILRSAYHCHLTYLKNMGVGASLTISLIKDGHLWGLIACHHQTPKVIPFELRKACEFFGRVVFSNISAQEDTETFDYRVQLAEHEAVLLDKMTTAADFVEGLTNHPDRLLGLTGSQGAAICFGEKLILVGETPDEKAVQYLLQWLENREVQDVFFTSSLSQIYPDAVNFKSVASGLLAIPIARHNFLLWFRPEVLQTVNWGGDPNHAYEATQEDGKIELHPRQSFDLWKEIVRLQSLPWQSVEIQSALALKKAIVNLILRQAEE

POZ53552 (BBAG-1) [2] = molecular target: T3, POZ53552 (BBAG-1); test: absorption of purified holoprotein, acid denaturation; format: binding; conditions: covalent (CXRD motif)

**Q.** How did the “absorption of purified holoprotein, acid denaturation, CD” value (CAP_1521 (BBAG-2)) turn out when `C=CC1=C(C)C(=Cc2[nH]c(C=C3N=C(C=C4NC(=O)C(C)=C4C=C)C(C)=C3CCC(=O)O)c(CCC(=O)O)c2C)NC1=O` [BV] was run?
**A.** Its value is “Acid denaturation demonstrated that both possessed BV adducts rather than PΦB adducts”.

**Q.** And the “coexpression in E. coli with HO and Cph1 reporter; bilin identified on reporter” value (POZ53557 (pre-1 FDBR))?
**A.** The value was “POZ53557 appears to carry out inefficient reduction of BV to PΦB”.

**Q.** And the “absorption of purified holoprotein” value (POZ53552 (BBAG-1) [1])?
**A.** The value was “POZ53545 with no FDBR (synthesizing BV; plasmid Spam-545xc”.

**Q.** With `C=CC1=C(C)C(CC2=NC(=Cc3[nH]c(C=C4NC(=O)C(C)C4=CC)c(C)c3CCC(=O)O)C(CCC(=O)O)=C2C)NC1=O` (stereo not shown) [PEB] as the compound, how does the “absorption, photoconversion, acid denaturation” value (Cph1 (N514 truncation); coexpressed with Spam-545/8304, photoinactive population of mixed preparation) read?
**A.** Its value is “The photoinactive pink population was consistent with the known properties of the PEB adduct”.

**Q.** What about the “absorption of purified holoprotein, acid denaturation” value (POZ53552 (BBAG-1) [2]; coexpressed with Spam-545/8304, mixture of PΦB and PEB adducts) of the same compound?
**A.** Its value is “Denaturation analysis confirmed that these peaks reflected a mixture of PΦB and PEB”.

**Q.** How did the “absorption, photoconversion, acid denaturation” value (Cph1 (N514 truncation); coexpressed with Spam-545/CAP) turn out when `C=CC1=C(C)C(=CC2=NC(=Cc3[nH]c(C=C4NC(=O)C(C)C4=CC)c(C)c3CCC(=O)O)C(CCC(=O)O)=C2C)NC1=O` (stereo not shown) [PΦB] was run?
**A.** The value was “confirmed that this preparation contained a PΦB chromophore”.

**Q.** What about the “absorption of purified holoprotein, acid denaturation” value (POZ53552 (BBAG-1) [2]; coexpressed with Spam-545/CAP, poor chromophorylation) of the same compound?
**A.** Its value is “BBAG-1 POZ53552 incorporated PΦB when coexpressed with Spam-545/CAP”.
